Series [1] deals with P388. Kind of series: Antitumor activity against mouse P388 cells allografted in mouse at 12.5 mg/kg. The format is functional.
The subject of series [2] is Mus musculus. Kind of series: Toxicity in mouse P388 cells allografted mouse at 6.25 mg/kg. The arrangement: dose 6.25 mg/kg. The format is organism-based. As to conditions: in vivo.
Another series deals with KB. Kind of series: Cytotoxicity against human KB cells. Format: functional. The following applies: read-out: ED50 (the source's name).
Series [3] relates to Mus musculus. Kind of series: Toxicity in mouse P388 cells allografted mouse at 12.5 mg/kg. The format is organism-based. On the set-up: dose 12.5 mg/kg. As to conditions: in vivo.
For series [4], the system named is P388. Kind of series: Antitumor activity against mouse P388 cells allografted in mouse at 3.13 mg/kg. The format is functional.
For series [5], the system named is P388. Kind of series: Antitumor activity against mouse P388 cells allografted in mouse at 6.25 mg/kg. Format: functional.
The subject of series [6] is Mus musculus. Kind of series: Toxicity in mouse P388 cells allografted mouse at 400 mg/kg. Format: organism-based. The arrangement: dose 400 mg/kg. The following applies: in vivo.
Series [7] relates to Mus musculus. Kind of series: Toxicity in mouse P388 cells allografted mouse at 100 mg/kg. The arrangement: dose 100 mg/kg. The format is organism-based. As to conditions: in vivo.
In series [8] the test system is Mus musculus. Kind of series: Toxicity in mouse P388 cells allografted mouse at 50 mg/kg. Format: organism-based. The arrangement: dose 50 mg/kg. As to conditions: in vivo.
Series [9] concerns Mus musculus. Kind of series: Toxicity in mouse P388 cells allografted mouse at 3.13 mg/kg. On the set-up: dose 3.13 mg/kg. The following applies: in vivo. Format: organism-based.
Series [10] has as its system Mus musculus. Kind of series: Toxicity in mouse P388 cells allografted mouse at 200 mg/kg. The format is organism-based. On the set-up: dose 200 mg/kg. As to conditions: in vivo.
Series [11] deals with P388. Kind of series: Antitumor activity against mouse P388 cells allografted in mouse at 25 mg/kg. The format is functional.
Series [12] has as its system Mus musculus. Kind of series: Toxicity in mouse P388 cells allografted mouse at 25 mg/kg. Format: organism-based. The arrangement: dose 25 mg/kg. As to conditions: in vivo.
In series [13] the test system is P388. Kind of series: Antitumor activity against mouse P388 cells allografted in mouse at 200 mg/kg. Format: functional.
Series [14] has as its system P388. Kind of series: Antitumor activity against mouse P388 cells allografted in mouse at 400 mg/kg. Format: functional.
The subject of series [15] is P388. Kind of series: Antitumor activity against mouse P388 cells allografted in mouse at 50 mg/kg. Format: functional.
Series [16] concerns P388. Kind of series: Antitumor activity against mouse P388 cells allografted in mouse at 100 mg/kg. The format is functional.

In brackets after ≈: the same amount, converted by molar mass.

Here are results for six compounds from ChEMBL document CHEMBL3227932, “Conformations, DNA binding parameters, and antileukemic activity of certain cytotoxic protoberberine alkaloids” (J Med Chem, 1979).

Regarding `COc1cc2c(cc1OC)-c1c(C)c3ccc(OC)c(OC)c3c[n+]1CC2.[Cl-]`, the T/C in the series on P388 [1] is listed as 107; with P388 [4], 105; with P388 [5], 102. The Activity entry is listed as “Non-toxic” with Mus musculus [2]; “Non-toxic” with Mus musculus [3]; “Toxic” in the series on Mus musculus [6]; “Toxic” in the series on Mus musculus [7]; “Toxic” in the series on Mus musculus [8]; “Non-toxic” in the series on Mus musculus [9]. Besides, in the series with Mus musculus [10], the Activity result is listed as “Toxic”. Besides, in the series on KB, the EC50 was 4.76 µg/mL.
For the compound `COc1cc2c[n+]3c(c(C)c2cc1OC)-c1cc2c(cc1CC3)OCO2.[I-]`, the T/C with P388 [1] is listed as 113; with P388 [5], 106; with P388 [11], 116. Further, the Activity entry in the series with Mus musculus [2] is on record as “Non-toxic”; in the series on Mus musculus [3], “Non-toxic”; in the series with Mus musculus [6] it was “Toxic”; with Mus musculus [7], “Toxic”; with Mus musculus [10], “Toxic”; with Mus musculus [12], “Non-toxic”. Also, in the series on KB, the EC50 was found to be 2.98 µg/mL.
In the case of `COc1cc2c(cc1OC)[C@H](CO)[C@H]1c3cc4c(cc3CCN1C2)OCO4` (relative stereo), in the series on KB, the EC50 is over 100 µg/mL.
Regarding `COc1cc2c(cc1OC)[C@@H](CO)[C@H]1c3cc4c(cc3CCN1C2)OCO4` (relative stereo), the EC50 in the series with KB amounted to 2.65 µg/mL (≈ 7.17 µM). The T/C is listed as 105 in the series with P388 [13], 129 in the series on P388 [14], 115 with P388 [15] and 98 in the series on P388 [16]. The Activity result with Mus musculus [6], in the series with Mus musculus [7], in the series with Mus musculus [8] and in the series on Mus musculus [10] was “Non-toxic” each time.
As for `COc1cc2c(cc1OC)[C@H](C)[C@H]1c3cc4c(cc3CCN1C2)OCO4` (relative stereo), the EC50 with KB was over 100 µg/mL.
In the case of `COc1cc2c(cc1OC)[C@@H](C)[C@H]1c3cc4c(cc3CCN1C2)OCO4` (relative stereo), in the series with KB, the EC50 was 0.47 µg/mL (≈ 1.33 µM).
